Assay results published in patent US20060035966A1, “Irreversible selective androgen receptor modulators and methods of use thereof” (priority 2002, published 2006).
Read-outs that look alike come from different tables or passages of the source.

Legend:
[1] = tested on: DU 145 prostate cancer cell line; assay: Cytotoxicity, SRB assay, DU 145; assay type: cell-based, human; settings: Homo sapiens, read-out: IC50 DU 145
Description: (§1) The SRB Assay was used to determine cell number during cytotoxocity experiments. The following protocol was used: • 1. […] Experimental cultures were cultured in 96-well microtiter plates (200 uL growth medium per well; 1,000-200,000 cells per well). • 3. Cultures were fixed with 50 uL 50% TCA (4° C.). (see cell fixation protocol for details). • 4. Fixed cells were stained with 50 uL 0.4% (wt/vol) SRB in 1% acetic acid for 10 minutes. • 5. SRB was removed and the cultures were quickly* rinsed 5 times with 1% acetic acid to remove unbound dye.** • 6. Cultures were air-dried overnight until there is no visible moisture. • 7. […] Absorbance was read at 540 nm. • * quickly performing rinsing process is to prevent desorption of protein-bound SRB • ** completely remove residual wash solution by sharply flicking plates over sink. Fixation of Cells Attached to the Plastic Substratum
(§2) The following protocol was used for fixing cells: • a. 50 uL of 50% TCA (4° C.) were gently layered on the top of growth medium in each well to make a final TCA concentration of 10%. • b. Cultures were incubated at 4° C. for 1 hour. • c. Cultures were washed 5 times with tap water to remove TCA, growth medium, low-molecular-weight metabolites, and serum protein. • d. Plates were air-dried until there was no visible moisture.

[2] = tested on: AR-expressing LNCaP prostate cancer cell line; assay: Cytotoxicity, SRB assay, LNCaP; assay type: cell-based, human; settings: Homo sapiens, LNCaP, read-out: IC50 LNCaP
Description: as §1, §2

[3] = tested on: TSU prostate cancer cell line; assay: Cytotoxicity, SRB assay, TSU; assay type: cell-based, human; settings: Homo sapiens, read-out: IC50 TSU
Description: as §1, §2

[4] = tested on: PPC-1 prostate cancer cell line; assay: Cytotoxicity, SRB assay, PPC-1; assay type: cell-based, human; settings: Homo sapiens, read-out: IC50 PPC-1
Description: as §1, §2

PPC-1 cells = assay: Induction of apoptosis, PPC-1; assay type: cell-based, human
Description: (§3) The ability of DJ 1-31, DJ 1-29, S-NTBA and Compound V to induce apoptosis in different prostate cancer cell lines (DU 145, PC-3, TSU, PPC-1 and LNCaP), in other cancer cell lines (TCCSUP, HT-29 and MCF-7) and in a control cell line (CV-1) was determined and the results are shown in Table 6.

CV-1 cells = assay: Induction of apoptosis, CV-1; assay type: cell-based, African green monkey
Description: as §3

CV-1 control cell line = assay: Cytotoxicity, SRB assay, CV-1 control; assay type: cell-based, African green monkey; settings: Chlorocebus sabaeus, read-out: IC50 CV-1
Description: (§4) The SRB Assay was used to determine cell number during cytotoxocity experiments. The following protocol was used: • 1. Cells were detached with 0.25% trypsin. • 2. Experimental cultures were cultured in 96-well microtiter plates (200 uL growth medium per well; 1,000-200,000 cells per well). • 3. Cultures were fixed with 50 uL 50% TCA (4° C.). (see cell fixation protocol for details). • 4. Fixed cells were stained with 50 uL 0.4% (wt/vol) SRB in 1% acetic acid for 10 minutes. • 5. SRB was removed and the cultures were quickly* rinsed 5 times with 1% acetic acid to remove unbound dye.** • 6. Cultures were air-dried overnight until there is no visible moisture. • 7. The cellular protein-bound SRB was dissolved with 200 uL unbuffered Tris base (10 mM, pH 10.5) for 30 minutes on a rocking platform shaker. • 8. Absorbance was read at 540 nm. • * quickly performing rinsing process is to prevent desorption of protein-bound SRB • ** completely remove residual wash solution by sharply flicking plates over sink. Fixation of Cells Attached to the Plastic Substratum
as §2

TCCSUP cells = assay: Induction of apoptosis, TCCSUP; assay type: cell-based, human
Description: as §3

PC-3 cells = assay: Induction of apoptosis, PC-3; assay type: cell-based, human
Description: as §3

[5] = tested on: HT-29 colorectal adenocarcinoma cell line; assay: Cytotoxicity, SRB assay, HT-29; assay type: cell-based, human; settings: Homo sapiens, read-out: IC50 HT-29
Description: as §1, §2

LNCaP cells = assay: Induction of apoptosis, LNCaP; assay type: cell-based, human
Description: as §3

HT-29 cells = assay: Induction of apoptosis, HT-29; assay type: cell-based, human
Description: as §3

[6] = tested on: TCCSUP bladder cancer cell line; assay: Cytotoxicity, SRB assay, TCCSUP; assay type: cell-based, human; settings: Homo sapiens, TCC-SUP, read-out: IC50 TCCSUP
Description: as §1, §2

[7] = tested on: PC-3 bone metastatic prostate cancer cell line; assay: Cytotoxicity, SRB assay, PC-3; assay type: cell-based, human; settings: Homo sapiens, read-out: IC50 PC-3
Description: PPC-1, LNCaP, TSU, PC-3, and DU145 were grown in PRMI-1640 medium containing 2 mM L-glutamine supplemented with 10% fetal bovine serum (FBS). Cells were maintained in a 5% CO2/95% air humidified atomosphere at 37° C.
as §4, §2

[8] = tested on: MCF-7 breast adenocarcinoma cell line; assay: Cytotoxicity, SRB assay, MCF-7; assay type: cell-based; settings: Homo sapiens, Example 4
Description: as §4, §2

TSU cells = assay: Induction of apoptosis, TSU; assay type: cell-based, human
Description: as §3

MCF-7 cells = assay: Induction of apoptosis, MCF-7; assay type: cell-based
Description: as §3

DU 145 cells = assay: Induction of apoptosis, DU 145; assay type: cell-based, human
Description: as §3

[9] = MCF7, 24 h, drug incubation time 1 day
[10] = MCF7, 96 h, drug incubation time 4 day

Compound	IC50 ([1]; DU-145, 24 h) [µM]	IC50 ([1]; DU-145, 96 h) [µM]	IC50 ([2]; 24 h) [µM]	IC50 ([2]; 96 h) [µM]	IC50 ([3]; 24 h) [µM]	IC50 ([3]; 96 h) [µM]	IC50 ([4]; PPC-1, 24 h) [µM]	IC50 ([4]; PPC-1, 96 h) [µM]	Enrichment factor PPC-1 (PPC-1 cells)	Enrichment factor CV-1 (CV-1 cells)	IC50 (CV-1 control cell line; 24 h) [µM]	IC50 (CV-1 control cell line; 96 h) [µM]	Enrichment factor TCCSUP (TCCSUP cells)	Enrichment factor PC-3 (PC-3 cells)	IC50 ([5]; HT-29, 24 h) [µM]	IC50 ([5]; HT-29, 96 h) [µM]	Enrichment factor LNCaP (LNCaP cells)	Enrichment factor HT-29 (HT-29 cells)	IC50 ([6]; 24 h) [µM]	IC50 ([6]; 96 h) [µM]	further results
C[C@](O)(COc1ccc(NC(=O)CBr)cc1)C(=O)Nc1ccc([N+](=O)[O-])c(C(F)(F)F)c1 [DJ 1-29]	0.4 ± 0.1	0.4 ± 0.1	1.1 ± 0.4	1.8 ± 0.2	1.3 ± 0.1	1 ± 0.1	0.9 ± 0.1	1.3 ± 0.1	1.146	0.786	6.8 ± 0.5	7.3 ± 0.2	0.000	0.531	3.6 ± 0.4	4.4 ± 0.2	16.571	1.667	2.6 ± 0.4	2.5 ± 0.4	IC50 ([7]; 24 h): 2.3 ± 0.1 µM; IC50 ([7]; 96 h): 2.4 ± 0.4 µM; IC50 [8, 9]: 11.9 ± 0.3 µM; IC50 [8, 10]: 12.9 ± 0.7 µM; Enrichment factor TSU (TSU cells): 1.008; Enrichment factor MCF-7 (MCF-7 cells): 1.617; Enrichment factor DU 145 (DU 145 cells): 18.643
C[C@](O)(COc1ccc(NC(=O)CCl)cc1)C(=O)Nc1ccc([N+](=O)[O-])c(C(F)(F)F)c1 [DJ 1-31]	1 ± 0.2	0.7 ± 0.1	2.9 ± 1.2	3.3 ± 0.4	1.3 ± 0.1	1.1 ± 0.1	1.9 ± 0.1	1.9 ± 0.1	1.312	0.702	5.8 ± 0.3	5.3 ± 0.2	0.471	0.594	5.4 ± 0.1	3.7 ± 0.7	1.374	1.205	2.1 ± 0.3	2.1 ± 0.3	IC50 ([7]; 24 h): 5.4 ± 0.8 µM; IC50 ([7]; 96 h): 5.3 ± 0.8 µM; IC50 [8, 9]: 15.8 ± 2.7 µM; IC50 [8, 10]: 14 ± 1.1 µM; Enrichment factor TSU (TSU cells): 0.848; Enrichment factor MCF-7 (MCF-7 cells): 0.938; Enrichment factor DU 145 (DU 145 cells): 2.500
